In PubChem BioAssay (NCI):
Values joined by “and” are separate entries in the source; they are usually repeats but may differ in a detail not shown here. Equal entries are not always repeated.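 Cultured in 96-well plates, cells were exposed to test compound for 48 hours across five concentrations. GI50 is the concentration that inhibits growth by half. Definition used: TGI = concentration required for complete inhibition of growth.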

Columns and labels:
Experiment in all cases: DTP human tumour cell line panel, 48 h
[1] = test system: COLO 205 colon
[2] = test system: NCI-H226 lung
[3] = test system: SNB-75 CNS
[4] = test system: TK-10 renal
[5] = test system: OVCAR-3 ovarian
[6] = test system: CAKI-1 renal
[7] = test system: LOX IMVI melanoma
[8] = test system: A549 NSCLC
[9] = test system: SN12C renal
[10] = test system: MALME-3M melanoma
[11] = test system: K-562 leukemia
[12] = test system: 786-0 renal
[13] = test system: SF-539 CNS
[14] = test system: NCI/ADR-RES ovarian
[15] = test system: ACHN renal
[16] = test system: NCI-H460 lung
[17] = test system: OVCAR-5 ovarian
[18] = test system: HOP-92 NSCLC
[19] = test system: UACC-62 melanoma
[20] = test system: HCT-116 colon
[21] = test system: SW-620 colon
[22] = test system: HT29 colon
[23] = test system: MDA-N
[24] = test system: SK-MEL-28 melanoma
[25] = test system: KM12 colon
[26] = test system: RXF 393 renal
[27] = test system: HOP-62 NSCLC
[28] = test system: SF-268 CNS
[29] = test system: HS 578T breast
[30] = test system: M14 melanoma
[31] = test system: UO-31 renal
[32] = test system: SK-OV-3 ovarian
[33] = test system: SF-295 CNS
[34] = test system: BT-549 breast
[35] = test system: MCF7 breast
[36] = test system: OVCAR-4 ovarian
[37] = test system: MOLT-4 leukemia
[38] = test system: HCC-2998 colon
[39] = test system: SR leukemia
[40] = test system: SNB-19 CNS
[41] = test system: IGROV1 ovarian
[42] = test system: SK-MEL-5 melanoma
[43] = test system: PC-3 prostate
[44] = test system: SK-MEL-2 melanoma
[45] = test system: CCRF-CEM leukemia
[46] = test system: U251 CNS
[47] = test system: OVCAR-8 ovarian
[48] = test system: A498 renal
[49] = test system: MDA-MB-231 breast
[50] = test system: HCT-15 colon
[51] = test system: NCI-H522 lung
[52] = test system: RPMI-8226 leukemia
[53] = test system: EKVX NSCLC
[54] = test system: DU-145 prostate
[55] = test system: MDA-MB-435
[56] = test system: T-47D breast
[57] = test system: UACC-257 melanoma
[58] = test system: NCI-H23 lung
[59] = test system: HL-60(TB) leukemia

For `COC(=O)CCC(C)[C@H]1CCC2C3C(C[C@H](OC(C)=O)[C@@]21C)[C@@]1(C)CCC2(C[C@H]1C[C@H]3OC(C)=O)OOC1(CCC(C)CC1)OO2` (some centres not stated), the GI50 [1] was 8.13 µM and 48.8 µM, the TGI [1] was greater than 100 µM and the TGI [2] was greater than 100 µM. The GI50 [3] was 13.7 µM and 40.7 µM, the TGI [3] was greater than 100 µM and the GI50 [4] was 10.8 µM and > 100 µM. For the same compound, the TGI [4] was greater than 100 µM, the TGI [5] was > 100 µM and 72 µM and the GI50 [6] was 5.26 µM and 15.8 µM. For the same compound, the TGI [6] was greater than 100 µM, the TGI [7] was greater than 100 µM and the GI50 [8] was 3.89 µM and 13.4 µM. The TGI [8] was 25.4 µM and > 100 µM, the TGI [9] was greater than 100 µM and the TGI [10] was greater than 100 µM. For the same compound, the GI50 [11] was 3.78 µM and 26.8 µM, the TGI [11] was greater than 100 µM and the GI50 [12] was 9.1 µM and 27.6 µM. The TGI [12] was > 100 µM and 95.9 µM, the TGI [13] was greater than 100 µM and the TGI [14] was greater than 100 µM. The TGI [15] was 61.7 µM and > 100 µM, the GI50 [16] was 4.22 µM and 18.7 µM and the TGI [16] was greater than 100 µM. For the same compound, the TGI [17] was greater than 100 µM, the TGI [18] was 7.63 µM and 69.9 µM and the TGI [19] was greater than 100 µM. For the same compound, the TGI [20] was greater than 100 µM, the GI50 [21] was 4.68 µM and 31.4 µM and the TGI [21] was greater than 100 µM. For the same compound, the TGI [22] was greater than 100 µM, the TGI [23] was greater than 100 µM and the TGI [24] was greater than 100 µM. For the same compound, the GI50 [25] was 4.03 µM and 38.7 µM, the TGI [25] was greater than 100 µM and the TGI [26] was greater than 100 µM. For the same compound, the GI50 [27] was 2.06 µM and 8.76 µM, the TGI [27] was 6.4 µM and 28.4 µM and the GI50 [28] was 8.26 µM and 32.8 µM. The TGI [28] was greater than 100 µM, the GI50 [29] was 2.01 µM and 9.68 µM and the TGI [29] was 41.6 µM and 70.7 µM. The TGI [30] was greater than 100 µM, the GI50 [31] was 4.13 µM and 11.2 µM and the TGI [31] was 17.8 µM and 36.4 µM. The TGI [32] was greater than 100 µM, the GI50 [33] was > 100 µM and 47.1 µM and the TGI [33] was greater than 100 µM. The GI50 [34] was 6.42 µM and 57 µM, the TGI [34] was greater than 100 µM and the GI50 [35] was 5.62 µM and 38.4 µM. The TGI [35] was greater than 100 µM, the GI50 [36] was 3.75 µM and 18.2 µM and the TGI [36] was 49.5 µM and > 100 µM. For the same compound, the GI50 [37] was 2.86 µM and 25.5 µM, the TGI [37] was greater than 100 µM and the TGI [38] was greater than 100 µM. For the same compound, the TGI [39] was greater than 100 µM, the TGI [40] was greater than 100 µM and the GI50 [41] was 3.82 µM and 10.1 µM. For the same compound, the TGI [41] was 16.4 µM and 27.3 µM, the TGI [42] was greater than 100 µM and the GI50 [43] was 2.98 µM and 7.43 µM. The TGI [43] was greater than 100 µM, the GI50 [44] was 21.9 µM and 64.9 µM and the TGI [44] was greater than 100 µM. The TGI [45] was greater than 100 µM, the TGI [46] was greater than 100 µM and the GI50 [47] was 8.64 µM and 26.2 µM. The TGI [47] was greater than 100 µM, the TGI [48] was greater than 100 µM and the TGI [49] was greater than 100 µM. For the same compound, the GI50 [50] was 8.89 µM and 30.9 µM, the TGI [50] was greater than 100 µM and the GI50 [51] was 6.16 µM and 14.6 µM. For the same compound, the TGI [51] was greater than 100 µM, the GI50 [52] was 1.28 µM and 3.15 µM and the TGI [52] was 6.34 µM and 17.2 µM. The GI50 [53] was 3.79 µM and 10.1 µM, the TGI [53] was 21.5 µM and 52.4 µM and the GI50 [54] was > 100 µM and 27.8 µM. The TGI [54] was greater than 100 µM, the GI50 [55] was 10.9 µM and 43.4 µM and the TGI [55] was greater than 100 µM. The TGI [56] was greater than 100 µM, the GI50 [57] was 8.83 µM and 25.2 µM and the TGI [57] was greater than 100 µM. The GI50 [58] was 7.74 µM and 15.6 µM, the TGI [58] was greater than 100 µM and the GI50 [59] was 3.36 µM and 14.9 µM. The TGI [59] was 27.7 µM and > 100 µM.
`Cc1cc(=O)oc2c(CN3CCCCC3)c(O)ccc12` showed a TGI [1] greater than 100 µM, a TGI [2] greater than 100 µM and a TGI [3] greater than 100 µM. For the same compound, the TGI [4] was greater than 100 µM, the TGI [5] was greater than 100 µM and the TGI [6] was greater than 100 µM. For the same compound, the TGI [7] was greater than 100 µM, the TGI [8] was greater than 100 µM and the TGI [9] was greater than 100 µM. For the same compound, the TGI [10] was greater than 100 µM, the TGI [11] was greater than 100 µM and the TGI [12] was greater than 100 µM. For the same compound, the TGI [13] was greater than 100 µM, the TGI [14] was greater than 100 µM and the TGI [15] was greater than 100 µM. It also gave a TGI [16] greater than 100 µM, a TGI [17] greater than 100 µM and a TGI [18] greater than 100 µM. It also gave a TGI [19] greater than 100 µM, a TGI [20] greater than 100 µM and a TGI [21] greater than 100 µM. It also gave a TGI [22] greater than 100 µM, a TGI [23] greater than 100 µM and a TGI [24] greater than 100 µM. It also gave a TGI [26] greater than 100 µM, a TGI [27] greater than 100 µM and a TGI [28] greater than 100 µM. For the same compound, the TGI [29] was greater than 100 µM, the TGI [30] was greater than 100 µM and the TGI [33] was greater than 100 µM. The TGI [34] was greater than 100 µM, the TGI [35] was greater than 100 µM and the TGI [36] was greater than 100 µM. The TGI [37] was greater than 100 µM, the TGI [38] was greater than 100 µM and the TGI [39] was greater than 100 µM. It also gave a TGI [40] greater than 100 µM, a TGI [41] greater than 100 µM and a TGI [42] greater than 100 µM. The TGI [43] was greater than 100 µM, the TGI [44] was greater than 100 µM and the TGI [45] was greater than 100 µM. For the same compound, the TGI [46] was greater than 100 µM, the TGI [47] was greater than 100 µM and the TGI [48] was greater than 100 µM. The TGI [49] was greater than 100 µM, the TGI [50] was greater than 100 µM and the TGI [51] was greater than 100 µM. It also gave a TGI [52] greater than 100 µM, a TGI [53] greater than 100 µM and a TGI [54] greater than 100 µM. For the same compound, the TGI [55] was greater than 100 µM, the TGI [56] was greater than 100 µM and the TGI [57] was greater than 100 µM. For the same compound, the TGI [58] was greater than 100 µM and the TGI [59] was greater than 100 µM.
